“And” between values parts separate entries of the source, which are not always exact repeats. Equal entries are not always repeated.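 Values below derive from 48-hour exposures of cells grown in 96-well plates, with endpoints linearly interpolated between the two concentrations bracketing the appropriate inhibition level. GI50 marks 50% less growth. TGI: concentration producing complete growth inhibition.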
test system: OVCAR-5 ovarian; test: DTP human tumour cell line panel, 48 h

Compound	TGI
C=C(Cl)C(Br)(CCl)CCC(Br)C(C)(C)Cl (stereo not drawn)	19.4 µM
CC(O)C1(CNc2cc(Cl)nc(N)n2)CCC1 (stereo not drawn)	> 100 µM
COC(=O)C(Cc1c[nH]c2ccccc12)NP(=O)(O)OCC1OC(n2cc(I)c(=O)[nH]c2=O)CC1O (stereo not drawn)	> 100 µM
O=c1cnn(C/C=C/CO)c(=O)[nH]1	> 100 µM
N#Cc1c(-c2ccc(Cl)cc2Cl)nc2[nH][nH]c(=S)n2c1=O	> 100 µM

test system: HCT-116 colon; test: DTP human tumour cell line panel, 48 h

Compound	TGI
CCOC(=O)CN1C(=O)c2ccc(NC(=O)C(=O)O)cc2S1(=O)=O	> 100 µM
COc1ccc2cc(/C=N/NC(=O)Nc3ccccc3)ccc2c1	> 100 µM
C=C(Cl)C(Br)(CCl)CCC(Br)C(C)(C)Cl (stereo not drawn)	3.14 µM and 3.21 µM
CC(O)C1(CNc2cc(Cl)nc(N)n2)CCC1 (stereo not drawn)	> 100 µM
COC(=O)C(Cc1c[nH]c2ccccc12)NP(=O)(O)OCC1OC(n2cc(I)c(=O)[nH]c2=O)CC1O (stereo not drawn)	> 100 µM
N#Cc1c(-c2ccc(Cl)cc2Cl)nc2[nH][nH]c(=S)n2c1=O	> 100 µM

test system: UACC-257 melanoma; test: DTP human tumour cell line panel, 48 h

Compound	TGI
CCOC(=O)CN1C(=O)c2ccc(NC(=O)C(=O)O)cc2S1(=O)=O	> 100 µM
COc1ccc2cc(/C=N/NC(=O)Nc3ccccc3)ccc2c1	> 100 µM
C=C(Cl)C(Br)(CCl)CCC(Br)C(C)(C)Cl (stereo not drawn)	7.78 µM and 8.58 µM
CC(O)C1(CNc2cc(Cl)nc(N)n2)CCC1 (stereo not drawn)	> 100 µM
COC(=O)C(Cc1c[nH]c2ccccc12)NP(=O)(O)OCC1OC(n2cc(I)c(=O)[nH]c2=O)CC1O (stereo not drawn)	> 100 µM
O=c1cnn(C/C=C/CO)c(=O)[nH]1	> 100 µM
N#Cc1c(-c2ccc(Cl)cc2Cl)nc2[nH][nH]c(=S)n2c1=O	> 100 µM

test system: TK-10 renal; test: DTP human tumour cell line panel, 48 h

Compound	TGI
CCOC(=O)CN1C(=O)c2ccc(NC(=O)C(=O)O)cc2S1(=O)=O	> 100 µM
COc1ccc2cc(/C=N/NC(=O)Nc3ccccc3)ccc2c1	> 100 µM
C=C(Cl)C(Br)(CCl)CCC(Br)C(C)(C)Cl (stereo not drawn)	24.6 µM
CC(O)C1(CNc2cc(Cl)nc(N)n2)CCC1 (stereo not drawn)	> 100 µM
COC(=O)C(Cc1c[nH]c2ccccc12)NP(=O)(O)OCC1OC(n2cc(I)c(=O)[nH]c2=O)CC1O (stereo not drawn)	> 100 µM
O=c1cnn(C/C=C/CO)c(=O)[nH]1	> 100 µM
N#Cc1c(-c2ccc(Cl)cc2Cl)nc2[nH][nH]c(=S)n2c1=O	> 100 µM

test system: NCI-H23 lung; test: DTP human tumour cell line panel, 48 h

Compound	TGI	GI50
CCOC(=O)CN1C(=O)c2ccc(NC(=O)C(=O)O)cc2S1(=O)=O	> 100 µM	
COc1ccc2cc(/C=N/NC(=O)Nc3ccccc3)ccc2c1	> 100 µM	
C=C(Cl)C(Br)(CCl)CCC(Br)C(C)(C)Cl (stereo not drawn)	5.57 µM	2.46 µM
CC(O)C1(CNc2cc(Cl)nc(N)n2)CCC1 (stereo not drawn)	> 100 µM	
COC(=O)C(Cc1c[nH]c2ccccc12)NP(=O)(O)OCC1OC(n2cc(I)c(=O)[nH]c2=O)CC1O (stereo not drawn)	> 100 µM	
O=c1cnn(C/C=C/CO)c(=O)[nH]1	> 100 µM	
N#Cc1c(-c2ccc(Cl)cc2Cl)nc2[nH][nH]c(=S)n2c1=O	> 100 µM	

test system: SK-MEL-28 melanoma; test: DTP human tumour cell line panel, 48 h

Compound	TGI	GI50
CCOC(=O)CN1C(=O)c2ccc(NC(=O)C(=O)O)cc2S1(=O)=O	> 100 µM	
C=C(Cl)C(Br)(CCl)CCC(Br)C(C)(C)Cl (stereo not drawn)	14.2 µM	5.88 µM
CC(O)C1(CNc2cc(Cl)nc(N)n2)CCC1 (stereo not drawn)	> 100 µM	
COC(=O)C(Cc1c[nH]c2ccccc12)NP(=O)(O)OCC1OC(n2cc(I)c(=O)[nH]c2=O)CC1O (stereo not drawn)	> 100 µM	
O=c1cnn(C/C=C/CO)c(=O)[nH]1	> 100 µM	
N#Cc1c(-c2ccc(Cl)cc2Cl)nc2[nH][nH]c(=S)n2c1=O	> 100 µM	

test system: CCRF-CEM leukemia; test: DTP human tumour cell line panel, 48 h

Compound	TGI	GI50
CCOC(=O)CN1C(=O)c2ccc(NC(=O)C(=O)O)cc2S1(=O)=O	> 100 µM	
COc1ccc2cc(/C=N/NC(=O)Nc3ccccc3)ccc2c1	> 100 µM	
C=C(Cl)C(Br)(CCl)CCC(Br)C(C)(C)Cl (stereo not drawn)	6.34 µM and 1.38 µM	0.223 µM
CC(O)C1(CNc2cc(Cl)nc(N)n2)CCC1 (stereo not drawn)	> 100 µM	
COC(=O)C(Cc1c[nH]c2ccccc12)NP(=O)(O)OCC1OC(n2cc(I)c(=O)[nH]c2=O)CC1O (stereo not drawn)	> 100 µM	
O=c1cnn(C/C=C/CO)c(=O)[nH]1	> 100 µM	
N#Cc1c(-c2ccc(Cl)cc2Cl)nc2[nH][nH]c(=S)n2c1=O	> 100 µM	

test system: MDA-MB-435; test: DTP human tumour cell line panel, 48 h

Compound	TGI	GI50
CCOC(=O)CN1C(=O)c2ccc(NC(=O)C(=O)O)cc2S1(=O)=O	> 100 µM	
COc1ccc2cc(/C=N/NC(=O)Nc3ccccc3)ccc2c1	> 100 µM	
C=C(Cl)C(Br)(CCl)CCC(Br)C(C)(C)Cl (stereo not drawn)	8.65 µM and 4.27 µM	2.13 µM
CC(O)C1(CNc2cc(Cl)nc(N)n2)CCC1 (stereo not drawn)	> 100 µM	
COC(=O)C(Cc1c[nH]c2ccccc12)NP(=O)(O)OCC1OC(n2cc(I)c(=O)[nH]c2=O)CC1O (stereo not drawn)	> 100 µM	
O=c1cnn(C/C=C/CO)c(=O)[nH]1	> 100 µM	
N#Cc1c(-c2ccc(Cl)cc2Cl)nc2[nH][nH]c(=S)n2c1=O	> 100 µM	

test system: MDA-N; test: DTP human tumour cell line panel, 48 h

Compound	TGI	GI50
CCOC(=O)CN1C(=O)c2ccc(NC(=O)C(=O)O)cc2S1(=O)=O	> 100 µM	
COc1ccc2cc(/C=N/NC(=O)Nc3ccccc3)ccc2c1	> 100 µM	
C=C(Cl)C(Br)(CCl)CCC(Br)C(C)(C)Cl (stereo not drawn)	7.34 µM and 4.3 µM	2.05 µM
CC(O)C1(CNc2cc(Cl)nc(N)n2)CCC1 (stereo not drawn)	> 100 µM	
COC(=O)C(Cc1c[nH]c2ccccc12)NP(=O)(O)OCC1OC(n2cc(I)c(=O)[nH]c2=O)CC1O (stereo not drawn)	> 100 µM	
O=c1cnn(C/C=C/CO)c(=O)[nH]1	> 100 µM	
N#Cc1c(-c2ccc(Cl)cc2Cl)nc2[nH][nH]c(=S)n2c1=O	> 100 µM	

test system: MCF7 breast; test: DTP human tumour cell line panel, 48 h

Compound	TGI	GI50
CCOC(=O)CN1C(=O)c2ccc(NC(=O)C(=O)O)cc2S1(=O)=O	> 100 µM	
COc1ccc2cc(/C=N/NC(=O)Nc3ccccc3)ccc2c1	> 100 µM	
C=C(Cl)C(Br)(CCl)CCC(Br)C(C)(C)Cl (stereo not drawn)	7.13 µM and 15.6 µM	4.08 µM
CC(O)C1(CNc2cc(Cl)nc(N)n2)CCC1 (stereo not drawn)	> 100 µM	
COC(=O)C(Cc1c[nH]c2ccccc12)NP(=O)(O)OCC1OC(n2cc(I)c(=O)[nH]c2=O)CC1O (stereo not drawn)	> 100 µM	
O=c1cnn(C/C=C/CO)c(=O)[nH]1	> 100 µM	
N#Cc1c(-c2ccc(Cl)cc2Cl)nc2[nH][nH]c(=S)n2c1=O	> 100 µM	

test system: RXF 393 renal; test: DTP human tumour cell line panel, 48 h

Compound	TGI
CCOC(=O)CN1C(=O)c2ccc(NC(=O)C(=O)O)cc2S1(=O)=O	> 100 µM
C=C(Cl)C(Br)(CCl)CCC(Br)C(C)(C)Cl (stereo not drawn)	6.98 µM and 5.42 µM
CC(O)C1(CNc2cc(Cl)nc(N)n2)CCC1 (stereo not drawn)	> 100 µM
O=c1cnn(C/C=C/CO)c(=O)[nH]1	> 100 µM
N#Cc1c(-c2ccc(Cl)cc2Cl)nc2[nH][nH]c(=S)n2c1=O	> 100 µM

test system: SN12C renal; test: DTP human tumour cell line panel, 48 h

Compound	TGI	GI50
CCOC(=O)CN1C(=O)c2ccc(NC(=O)C(=O)O)cc2S1(=O)=O	> 100 µM	
COc1ccc2cc(/C=N/NC(=O)Nc3ccccc3)ccc2c1	> 100 µM	
C=C(Cl)C(Br)(CCl)CCC(Br)C(C)(C)Cl (stereo not drawn)	7.06 µM and 3.6 µM	1.89 µM
CC(O)C1(CNc2cc(Cl)nc(N)n2)CCC1 (stereo not drawn)	> 100 µM	
COC(=O)C(Cc1c[nH]c2ccccc12)NP(=O)(O)OCC1OC(n2cc(I)c(=O)[nH]c2=O)CC1O (stereo not drawn)	> 100 µM	
O=c1cnn(C/C=C/CO)c(=O)[nH]1	> 100 µM	
N#Cc1c(-c2ccc(Cl)cc2Cl)nc2[nH][nH]c(=S)n2c1=O	> 100 µM	

test system: CAKI-1 renal; test: DTP human tumour cell line panel, 48 h

Compound	TGI	GI50
CCOC(=O)CN1C(=O)c2ccc(NC(=O)C(=O)O)cc2S1(=O)=O	> 100 µM	
COc1ccc2cc(/C=N/NC(=O)Nc3ccccc3)ccc2c1	> 100 µM	
C=C(Cl)C(Br)(CCl)CCC(Br)C(C)(C)Cl (stereo not drawn)	8.08 µM and 10.2 µM	3.69 µM
CC(O)C1(CNc2cc(Cl)nc(N)n2)CCC1 (stereo not drawn)	> 100 µM	
COC(=O)C(Cc1c[nH]c2ccccc12)NP(=O)(O)OCC1OC(n2cc(I)c(=O)[nH]c2=O)CC1O (stereo not drawn)	> 100 µM	
O=c1cnn(C/C=C/CO)c(=O)[nH]1	> 100 µM	
N#Cc1c(-c2ccc(Cl)cc2Cl)nc2[nH][nH]c(=S)n2c1=O	> 100 µM	

test system: SK-MEL-2 melanoma; test: DTP human tumour cell line panel, 48 h

Compound	TGI	GI50
CCOC(=O)CN1C(=O)c2ccc(NC(=O)C(=O)O)cc2S1(=O)=O	> 100 µM	
COc1ccc2cc(/C=N/NC(=O)Nc3ccccc3)ccc2c1	> 100 µM	
C=C(Cl)C(Br)(CCl)CCC(Br)C(C)(C)Cl (stereo not drawn)	7.42 µM	3.14 µM
CC(O)C1(CNc2cc(Cl)nc(N)n2)CCC1 (stereo not drawn)	> 100 µM	
O=c1cnn(C/C=C/CO)c(=O)[nH]1	> 100 µM	
N#Cc1c(-c2ccc(Cl)cc2Cl)nc2[nH][nH]c(=S)n2c1=O	> 100 µM	

test system: PC-3 prostate; test: DTP human tumour cell line panel, 48 h

Compound	TGI
CCOC(=O)CN1C(=O)c2ccc(NC(=O)C(=O)O)cc2S1(=O)=O	> 100 µM
COc1ccc2cc(/C=N/NC(=O)Nc3ccccc3)ccc2c1	> 100 µM
C=C(Cl)C(Br)(CCl)CCC(Br)C(C)(C)Cl (stereo not drawn)	14.2 µM
